# Experiments:
# Rattus norvegicus [1] = organism: Rattus norvegicus; experiment: Ability to inhibit accumulation [3H]DA in rat whole brain synaptosomes; type: functional
# [2] = biological target: T1, 5-hydroxytryptamine receptor 2C (Homo sapiens, UniProt P28335); experiment: Agonist activity at cloned human 5-hydroxytryptamine 2C receptor using [125I]DOI radioligand; type: binding
# T1 sequence (P28335 whole entry): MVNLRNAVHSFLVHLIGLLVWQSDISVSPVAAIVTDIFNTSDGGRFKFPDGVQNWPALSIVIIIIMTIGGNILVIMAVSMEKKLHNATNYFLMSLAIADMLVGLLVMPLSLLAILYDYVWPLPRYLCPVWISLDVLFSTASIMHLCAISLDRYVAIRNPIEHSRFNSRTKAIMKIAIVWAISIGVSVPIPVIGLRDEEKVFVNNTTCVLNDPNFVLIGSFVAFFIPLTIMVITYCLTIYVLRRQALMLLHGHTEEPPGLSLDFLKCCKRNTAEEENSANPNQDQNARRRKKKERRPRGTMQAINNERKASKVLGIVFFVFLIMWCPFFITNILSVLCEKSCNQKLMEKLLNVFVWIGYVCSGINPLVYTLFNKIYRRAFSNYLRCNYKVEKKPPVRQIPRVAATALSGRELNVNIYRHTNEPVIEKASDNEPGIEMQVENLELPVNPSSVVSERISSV
# [3] = biological target: T2, 5-hydroxytryptamine receptor 1A (Rattus norvegicus, UniProt P19327); experiment: Ability to displace [3H]-8-OH-DPAT from rat hippocampal homogenate 5-hydroxytryptamine 1A receptor; type: tissue-based, Hippocampus
# T2 sequence (P19327 whole entry): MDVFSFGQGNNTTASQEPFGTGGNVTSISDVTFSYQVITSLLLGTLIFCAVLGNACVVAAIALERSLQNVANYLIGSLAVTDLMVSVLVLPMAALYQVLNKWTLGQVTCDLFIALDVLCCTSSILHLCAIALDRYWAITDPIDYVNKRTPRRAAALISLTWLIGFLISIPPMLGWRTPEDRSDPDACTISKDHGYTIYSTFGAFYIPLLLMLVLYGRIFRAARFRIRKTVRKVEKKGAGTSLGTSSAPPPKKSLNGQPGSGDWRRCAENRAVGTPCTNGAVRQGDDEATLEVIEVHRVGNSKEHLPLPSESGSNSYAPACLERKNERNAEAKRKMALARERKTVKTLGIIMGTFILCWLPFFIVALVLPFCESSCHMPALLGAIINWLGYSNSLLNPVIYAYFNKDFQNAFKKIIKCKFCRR
# Rattus norvegicus [4] = organism: Rattus norvegicus; experiment: Ability to inhibit accumulation [3H]5-HT in rat whole brain synaptosomes; type: functional
# [5] = biological target: T3, 5-hydroxytryptamine receptor 2A (Rattus norvegicus, UniProt P14842); experiment: Effect on phosphoinositide hydrolysis in NIH 3T3 fibroblast expressing 5-hydroxytryptamine 2A receptor; type: functional
# [6] = biological target: T4, 5-hydroxytryptamine receptor 2B (Homo sapiens, UniProt P41595); experiment: Agonist activity at cloned human 5-hydroxytryptamine 2B receptor using [3H]5-HT radioligand; type: binding
# [7] = biological target: T3, 5-hydroxytryptamine receptor 2A; experiment: Ability to displace [3H]ketanserin from rat cortical homogenate 5-hydroxytryptamine 2A receptor
# [8] = biological target: T1, 5-hydroxytryptamine receptor 2C; experiment: Antagonist activity at cloned human 5-hydroxytryptamine 2C receptor using [3H]mesulergine radioligand
# [9] = biological target: T4, 5-hydroxytryptamine receptor 2B; experiment: Antagonist activity at cloned human 5-hydroxytryptamine 2B receptor using [3H]rauwolscine radioligand
# Rattus norvegicus [10] = organism: Rattus norvegicus; experiment: Effective dose showing 29% Drug Discrimination in LSD trained rats (number of animals tested = 8-12); type: functional
# [11] = biological target: T5, 5-hydroxytryptamine receptor 2C (Rattus norvegicus, UniProt P08909); experiment: Effect on phosphoinositide hydrolysis in NIH 3T3 fibroblast 5-hydroxytryptamine 2C receptor; type: functional
# T5 sequence (P08909 whole entry): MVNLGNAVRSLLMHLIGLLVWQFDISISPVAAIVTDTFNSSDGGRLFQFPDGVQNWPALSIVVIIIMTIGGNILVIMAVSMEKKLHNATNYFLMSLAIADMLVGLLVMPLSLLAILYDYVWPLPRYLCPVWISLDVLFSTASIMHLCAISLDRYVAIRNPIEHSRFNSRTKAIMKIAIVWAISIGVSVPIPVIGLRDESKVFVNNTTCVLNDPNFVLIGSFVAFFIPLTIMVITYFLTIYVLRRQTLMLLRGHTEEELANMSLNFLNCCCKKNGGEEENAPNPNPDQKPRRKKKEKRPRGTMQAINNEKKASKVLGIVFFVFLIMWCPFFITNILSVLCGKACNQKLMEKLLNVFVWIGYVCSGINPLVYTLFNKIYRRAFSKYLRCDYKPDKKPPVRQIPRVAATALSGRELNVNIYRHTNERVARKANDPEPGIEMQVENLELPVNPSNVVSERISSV
# [12] = biological target: T4, 5-hydroxytryptamine receptor 2B; experiment: Antagonist activity at cloned human 5-hydroxytryptamine 2B receptor using [3H]- rauwolscine radioligand
# [13] = biological target: T3, 5-hydroxytryptamine receptor 2A; experiment: Effect on phosphoinositide hydrolysis in NIH 3T3 fibroblast 5-hydroxytryptamine 2A receptor; type: functional
# [14] = biological target: T6, 5-hydroxytryptamine receptor 2A (Homo sapiens, UniProt P28223); experiment: Agonist activity at cloned human 5-hydroxytryptamine 2A receptor using [125I]DOI radioligand
# [15] = biological target: T6, 5-hydroxytryptamine receptor 2A; experiment: Antagonist activity at cloned human 5-hydroxytryptamine 2A receptor using [3H]-Ketanserin radioligand
# Rattus norvegicus [16] = organism: Rattus norvegicus; experiment: Effective dose showing 50% Drug Discrimination in LSD trained rats (number of animals tested = 8-12); type: functional
# [17] = Partition coefficient (logP); type: physicochemical; settings: octanol/water
# T6 sequence (P28223 whole entry): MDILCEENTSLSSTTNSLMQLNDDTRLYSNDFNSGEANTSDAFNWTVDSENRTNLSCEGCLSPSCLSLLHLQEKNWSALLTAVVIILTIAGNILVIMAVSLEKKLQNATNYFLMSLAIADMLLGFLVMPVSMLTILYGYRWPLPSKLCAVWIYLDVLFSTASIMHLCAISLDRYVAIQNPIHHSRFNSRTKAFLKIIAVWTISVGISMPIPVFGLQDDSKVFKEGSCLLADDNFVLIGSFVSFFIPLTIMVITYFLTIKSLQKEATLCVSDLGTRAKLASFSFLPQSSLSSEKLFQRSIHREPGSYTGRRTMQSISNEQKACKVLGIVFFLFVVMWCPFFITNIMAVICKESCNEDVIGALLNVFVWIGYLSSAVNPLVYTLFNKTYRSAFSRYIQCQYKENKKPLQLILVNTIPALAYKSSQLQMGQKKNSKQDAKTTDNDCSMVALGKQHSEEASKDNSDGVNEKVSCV
# T3 sequence (P14842 whole entry): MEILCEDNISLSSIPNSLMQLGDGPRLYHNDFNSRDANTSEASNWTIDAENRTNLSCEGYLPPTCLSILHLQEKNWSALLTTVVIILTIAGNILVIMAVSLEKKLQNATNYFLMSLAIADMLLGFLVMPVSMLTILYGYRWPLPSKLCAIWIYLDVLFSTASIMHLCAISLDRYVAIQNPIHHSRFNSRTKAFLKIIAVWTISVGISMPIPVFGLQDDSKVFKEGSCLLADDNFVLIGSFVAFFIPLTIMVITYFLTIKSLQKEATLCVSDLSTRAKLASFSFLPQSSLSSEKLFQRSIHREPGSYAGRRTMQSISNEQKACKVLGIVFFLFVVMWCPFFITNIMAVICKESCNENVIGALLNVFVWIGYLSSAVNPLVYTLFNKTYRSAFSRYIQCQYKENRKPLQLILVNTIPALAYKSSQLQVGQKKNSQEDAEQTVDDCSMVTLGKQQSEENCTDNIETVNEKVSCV
# T4 sequence (P41595 whole entry): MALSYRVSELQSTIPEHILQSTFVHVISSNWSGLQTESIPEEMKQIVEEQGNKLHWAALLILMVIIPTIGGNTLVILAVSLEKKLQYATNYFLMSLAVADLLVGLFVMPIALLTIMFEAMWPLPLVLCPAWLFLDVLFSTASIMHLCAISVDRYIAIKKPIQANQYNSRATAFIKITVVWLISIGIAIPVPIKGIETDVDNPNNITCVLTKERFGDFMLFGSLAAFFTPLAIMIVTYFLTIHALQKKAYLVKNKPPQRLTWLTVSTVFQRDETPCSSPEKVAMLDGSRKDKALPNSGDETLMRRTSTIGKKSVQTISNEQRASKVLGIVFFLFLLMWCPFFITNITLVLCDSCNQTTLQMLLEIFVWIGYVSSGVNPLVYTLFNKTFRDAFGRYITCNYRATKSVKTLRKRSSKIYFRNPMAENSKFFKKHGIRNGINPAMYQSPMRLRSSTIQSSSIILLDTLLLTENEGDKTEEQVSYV
structure (smiles),measurement,setting,value
COc1cc(CCN)c2c(c1OC)OCC2,IC50,Rattus norvegicus [1],> 10000 nM
same,Ki,[2],118 nM
same,Ki,[3],6200 nM
same,IC50,Rattus norvegicus [4],> 10000 nM
same,EC50,[5],3000 nM
same,Ki,[6],523 nM
same,Ki,[7],2500 nM
same,Ki,[8],1100 nM
same,Ki,[9],311 nM
same,ED50,Rattus norvegicus [10],57.8 µmol/kg
same,EC50,[11],2000 nM
COc1c2c(c(CCN)c3c1OCC3)CCO2,IC50,Rattus norvegicus [1],> 10000 nM
same,Ki,[2],61.5 nM
same,Ki,[12],205 nM
same,IC50,Rattus norvegicus [4],> 10000 nM
same,EC50,[13],2000 nM
same,Ki,[6],301 nM
same,Ki,[8],654 nM
same,Ki,[14],335 nM
same,Ki,[15],4440 nM
same,ED50,Rattus norvegicus [10],55.2 µmol/kg
same,EC50,[11],1000 nM
CCOc1c(OC)cc(CCN)cc1OC,IC50,Rattus norvegicus [1],> 10000 nM
same,Ki,[2],177 nM
same,Ki,[3],6900 nM
same,IC50,Rattus norvegicus [4],> 10000 nM
same,EC50,[13],4000 nM
same,Ki,[6],555 nM
same,Ki,[7],2100 nM
same,Ki,[14],216 nM
same,EC50,[11],2000 nM
same,ED50,Rattus norvegicus [16],16.2 µmol/kg
COc1cc(CCN)cc(OC)c1OC [MESCALINE],IC50,Rattus norvegicus [1],> 10000 nM
same,Ki,[2],303 nM
same,Ki,[3],6900 nM
same,IC50,Rattus norvegicus [4],> 10000 nM
same,EC50,[13],4000 nM
same,Ki,[6],795 nM
same,Ki,[7],5500 nM
same,logP,[17],3.15
same,Ki,[14],551 nM
same,EC50,[11],24000 nM
same,ED50,Rattus norvegicus [16],33.5 µmol/kg

# From ChEMBL document CHEMBL1130147, “Dihydrobenzofuran analogues of hallucinogens. 4. Mescaline derivatives” (J Med Chem, 1997)
